Measurements taken from PMC10540511 (Cellular and molecular life sciences : CMLS, 2023).
Read-outs that look alike come from different tables or passages of the source.

How the values were obtained:
[1] = target: T1, CBM98-CBM48 (BoGH13ASus CBM98-CBM48) (Bacteroides ovatus, UniProt A0ABU3ISA0); test: isothermal titration calorimetry; type: binding; details: read-out: Kd (μM) ± SD, 25 °C, 20 mM HEPES pH 7.0, 100 mM NaCl
T1 sequence (A0ABU3ISA0 22-296): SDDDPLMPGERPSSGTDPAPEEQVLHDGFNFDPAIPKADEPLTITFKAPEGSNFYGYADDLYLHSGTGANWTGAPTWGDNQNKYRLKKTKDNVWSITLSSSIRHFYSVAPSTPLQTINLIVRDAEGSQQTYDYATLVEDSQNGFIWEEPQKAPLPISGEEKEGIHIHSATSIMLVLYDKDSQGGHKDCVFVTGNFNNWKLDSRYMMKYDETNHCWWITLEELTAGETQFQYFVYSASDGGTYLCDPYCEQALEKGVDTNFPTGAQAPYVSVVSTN

[2] = target: T2, CBM98 (BoGH13ASus CBM98) (Bacteroides ovatus, UniProt A0ABU3ISA0); test: isothermal titration calorimetry; type: binding; details: read-out: Kd (μM) ± SD; 25 °C, 20 mM HEPES pH 7.0, 100 mM NaCl
T2 sequence (A0ABU3ISA0 22-143): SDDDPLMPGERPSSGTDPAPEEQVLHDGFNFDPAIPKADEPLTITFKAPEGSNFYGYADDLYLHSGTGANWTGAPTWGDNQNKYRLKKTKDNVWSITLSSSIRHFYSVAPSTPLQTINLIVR

[3] = standard-volume instrument, 25 μM protein

Kd [1, 3] [µM] | Kd [2] [µM] | Kd [1] [µM] | SMILES
21 ± 1.4 | 26 ± 3.8 | – | OC[C@H]1O[C@@H]2O[C@H]3[C@H](O)[C@@H](O)[C@@H](O[C@H]4[C@H](O)[C@@H](O)[C@@H](O[C@H]5[C@H](O)[C@@H](O)[C@@H](O[C@H]6[C@H](O)[C@@H](O)[C@@H](O[C@H]7[C@H](O)[C@@H](O)[C@@H](O[C@H]8[C@H](O)[C@@H](O)[C@@H](O[C@H]1[C@H](O)[C@H]2O)O[C@@H]8CO)O[C@@H]7CO)O[C@@H]6CO)O[C@@H]5CO)O[C@@H]4CO)O[C@@H]3CO [βCD, β-cyclodextrin]
43 ± 18 | 42 ± 13 | – | OC[C@H]1O[C@@H]2O[C@H]3[C@H](O)[C@@H](O)[C@@H](O[C@H]4[C@H](O)[C@@H](O)[C@@H](O[C@H]5[C@H](O)[C@@H](O)[C@@H](O[C@H]6[C@H](O)[C@@H](O)[C@@H](O[C@H]7[C@H](O)[C@@H](O)[C@@H](O[C@H]1[C@H](O)[C@H]2O)O[C@@H]7CO)O[C@@H]6CO)O[C@@H]5CO)O[C@@H]4CO)O[C@@H]3CO [αCD, α-cyclodextrin]
– | 32 ± 9.8 | 33 ± 9.9 | OC[C@H]1O[C@H](O[C@H]2[C@H](O)[C@@H](O)[C@@H](O[C@H]3[C@H](O)[C@@H](O)[C@@H](O[C@H]4[C@H](O)[C@@H](O)[C@@H](O[C@H]5[C@H](O)[C@@H](O)[C@@H](O[C@H]6[C@H](O)[C@@H](O)[C@@H](O[C@H]7[C@H](O)[C@@H](O)C(O)O[C@@H]7CO)O[C@@H]6CO)O[C@@H]5CO)O[C@@H]4CO)O[C@@H]3CO)O[C@@H]2CO)[C@H](O)[C@@H](O)[C@@H]1O (stereo partly drawn) [G7, maltoheptaose]
